Data taken from patent US10829649B2, “Methods and coatings for protecting surfaces from bio-fouling species” (priority 2018, dated 2020).
Converted amounts (≈) assume the structure as drawn. Like-named read-outs stand apart in the source and are kept apart here.

How the values were obtained:
[1] = soil and water runoff; cited from earlier work
[2] = cited from earlier work
[3] = test system: barnacle or mussel larvae; assay: biocide-impregnated polymer without outer biostatic layer exposed to larvae; assay type: in vivo; conditions: weeks or months later; no outer biostatic layer
Source text: With respect to undesirable effects on the aquatic environment and the benign and beneficial organisms that reside there, the outer biostatic layer is less potentially hazardous both for the chemical and physical reasons mentioned above and shields the water from contact with the more potentially hazardous inner biocidal layer. Also, when an occasional barnacle or mussel larva penetrates the outer layer and touches the inner layer as a juvenile, it is killed quickly and outright on contact. It has been experimentally observed that, when a polymer impregnated with a biocidal biocide such as ivermectin is exposed to barnacle or mussel larvae, and there is no outer biostatic attachment inhibiting polymer layer present, that larvae do attach regardless and grow on the surface of the polymer layer. The organisms with their tiny shells can be seen with a magnifying glass. […] With the present embodiments, the area of the puncture site of the inner layer is microscopic and thus nothing leaks out of the inner layer into the surrounding water.

CC[C@H]1CCC[C@H](O[C@H]2CC[C@H](N(C)C)[C@@H](C)O2)[C@@H](C)C(=O)C2=C[C@@H]3[C@@H](C=C(C)[C@@H]4C[C@@H](O[C@@H]5O[C@@H](C)[C@H](OC)[C@@H](OC)[C@H]5OC)C[C@@H]34)[C@@H]2CC(=O)O1 [spinosad D]
adsorption coefficient KOC [1]: 34,600

[O]=[Zn] [zinc oxide]
water solubility ([2]; pure water): about 16 mg/L

spinosad
adsorption coefficient KOC [1]: 34,600

pyrethrins
water solubility [2]: < 0.1 µg/mL
adsorption coefficient KOC [1]: > 100,000

CC(C)[C@]12O[C@H]1[C@@H]1O[C@]13[C@]1(O[C@H]1C[C@H]1C4=C(CC[C@@]13C)C(=O)OC4)[C@@H]2O [triptolide]
water solubility [2]: 0.017 µg/mL (≈ 0.0472 µM)

ivermectin
adult barnacles or mussels on the polymer layer [3]: no adult barnacle or mussel adults are seen

Cc1cccc(C(C)c2cnc[nH]2)c1C (stereo not shown) [Medetomidine]
water solubility [2]: 186 µg/mL (≈ 929 µM)

[Ag+].[O-][n+]1ccccc1[S-] [silver pyrithione]
water solubility ([2]; silver pyrithione): about 37 per L

zinc pyrithione
water solubility ([2]; metal pyrithione salts): about 12 mg per L
